From ChEMBL document CHEMBL1201862, “PubChem BioAssay data set” (2004)
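Cells were grown in 96-well plates and exposed to each compound for 48 hours at five concentrations; endpoints were interpolated linearly between bracketing concentrations, or set to the highest concentration if not reached. Here, GI50 denotes the concentration required for 50% inhibition of growth.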 The source made the active and inactive calls. No stated cut-off is given here; in the data, active = GI50 up to about 1.1 µM and inactive = higher.

Tests used:
Test in all cases: NCI tumour cell line growth inhibition, 48 h
HL-60 = test system: HL-60
SNB-78 = test system: SNB-78
786-0 = test system: 786-0
OVCAR-4 = test system: OVCAR-4
OVCAR-5 = test system: OVCAR-5
UACC-62 = test system: UACC-62
SNB-19 = test system: SNB-19
HCT-116 = test system: HCT-116
SK-MEL-5 = test system: SK-MEL-5
SK-MEL-28 = test system: SK-MEL-28
LOX IMVI = test system: LOX IMVI
MOLT-4 = test system: MOLT-4
SF-268 = test system: SF-268
K562 = test system: K562
SF-295 = test system: SF-295
CCRF-CEM = test system: CCRF-CEM
Malme-3M = test system: Malme-3M
IGROV-1 = test system: IGROV-1
A498 = test system: A498
SK-MEL-2 = test system: SK-MEL-2
HCC 2998 = test system: HCC 2998
NCI-H460 = test system: NCI-H460
TK-10 = test system: TK-10
RPMI-8226 = test system: RPMI-8226
NCI-H23 = test system: NCI-H23
DLD-1 = test system: DLD-1
COLO 205 = test system: COLO 205
CAKI-1 = test system: CAKI-1
DMS-273 = test system: DMS-273
OVCAR-3 = test system: OVCAR-3
SK-OV-3 = test system: SK-OV-3
M19-MEL = test system: M19-MEL
DMS-114 = test system: DMS-114
RXF 631 = test system: RXF 631
KM12 = test system: KM12
NCI-H522 = test system: NCI-H522
SF-539 = test system: SF-539
UO-31 = test system: UO-31
ACHN = test system: ACHN
SW-620 = test system: SW-620
UACC-257 = test system: UACC-257
U-251 = test system: U-251
HOP-62 = test system: HOP-62
XF498 = test system: XF498
OVCAR-8 = test system: OVCAR-8
LXFL 529 = test system: LXFL 529
RXF 393 = test system: RXF 393
EKVX = test system: EKVX
HCT-15 = test system: HCT-15
A549 = test system: A549
SN12C = test system: SN12C
SNB-75 = test system: SNB-75
SR = test system: SR
HOP-92 = test system: HOP-92
HT-29 = test system: HT-29
M14 = test system: M14
NCI-H226 = test system: NCI-H226

O=C1C[C@@H]2CCCC[C@@H]2C12SCCS2
GI50 (HL-60): 80 µM (inactive) | GI50 (SNB-78): > 100 µM (inactive) | GI50 (786-0): > 100 µM (inactive) | GI50 (OVCAR-4): > 100 µM (inactive) | GI50 (OVCAR-5): > 100 µM (inactive) | GI50 (UACC-62): 77.3 µM (inactive) | GI50 (SNB-19): > 100 µM (inactive) | GI50 (HCT-116): > 100 µM (inactive) | GI50 (SK-MEL-5): 92.5 µM (inactive) | GI50 (SK-MEL-28): 89.3 µM (inactive) | GI50 (LOX IMVI): > 100 µM (inactive) | GI50 (MOLT-4): 69.8 µM (inactive) | GI50 (SF-268): > 100 µM (inactive) | GI50 (K562): > 100 µM (inactive) | GI50 (SF-295): > 100 µM (inactive) | GI50 (CCRF-CEM): > 100 µM (inactive) | GI50 (Malme-3M): > 100 µM (inactive) | GI50 (IGROV-1): > 100 µM (inactive) | GI50 (A498): > 100 µM (inactive) | GI50 (SK-MEL-2): > 100 µM (inactive) | GI50 (HCC 2998): > 100 µM (inactive) | GI50 (NCI-H460): > 100 µM (inactive) | GI50 (TK-10): > 100 µM (inactive) | GI50 (RPMI-8226): > 100 µM (inactive) | GI50 (NCI-H23): 95.1 µM (inactive) | GI50 (DLD-1): > 100 µM (inactive) | GI50 (COLO 205): > 100 µM (inactive) | GI50 (CAKI-1): > 100 µM (inactive) | GI50 (DMS-273): > 100 µM (inactive) | GI50 (OVCAR-3): > 100 µM (inactive) | GI50 (SK-OV-3): > 100 µM (inactive) | GI50 (M19-MEL): > 100 µM (inactive) | GI50 (DMS-114): 89.1 µM (inactive) | GI50 (RXF 631): > 100 µM (inactive) | GI50 (KM12): > 100 µM (inactive) | GI50 (NCI-H522): 69 µM (inactive) | GI50 (SF-539): > 100 µM (inactive) | GI50 (UO-31): 32.1 µM (inactive) | GI50 (ACHN): > 100 µM (inactive) | GI50 (SW-620): > 100 µM (inactive) | GI50 (UACC-257): > 100 µM (inactive) | GI50 (U-251): > 100 µM (inactive) | GI50 (HOP-62): > 100 µM (inactive) | GI50 (XF498): 58.1 µM (inactive) | GI50 (OVCAR-8): > 100 µM (inactive) | GI50 (LXFL 529): > 100 µM (inactive) | GI50 (RXF 393): 54.2 µM (inactive) | GI50 (EKVX): > 100 µM (inactive) | GI50 (HCT-15): > 100 µM | GI50 (A549): > 100 µM (inactive) | GI50 (SN12C): > 100 µM (inactive) | GI50 (SNB-75): 61.9 µM (inactive)

C=C1c2[nH]c3ccccc3c2CC(C(=O)O)N1C(O)c1ccc(S(=O)(=O)O)cc1 (stereo not given)
GI50 (HL-60): > 100 µM (inactive) | GI50 (SNB-78): > 100 µM (inactive) | GI50 (786-0): > 100 µM (inactive) | GI50 (OVCAR-4): > 100 µM (inactive) | GI50 (OVCAR-5): > 100 µM (inactive) | GI50 (UACC-62): > 100 µM (inactive) | GI50 (SNB-19): > 100 µM (inactive) | GI50 (HCT-116): > 100 µM (inactive) | GI50 (SK-MEL-5): > 100 µM (inactive) | GI50 (SK-MEL-28): > 100 µM (inactive) | GI50 (SR): > 100 µM (inactive) | GI50 (LOX IMVI): > 100 µM (inactive) | GI50 (MOLT-4): > 100 µM (inactive) | GI50 (SF-268): > 100 µM (inactive) | GI50 (K562): > 100 µM (inactive) | GI50 (SF-295): > 100 µM (inactive) | GI50 (CCRF-CEM): > 100 µM (inactive) | GI50 (Malme-3M): > 100 µM (inactive) | GI50 (HOP-92): 22.1 µM (inactive) | GI50 (HT-29): > 100 µM (inactive) | GI50 (A498): > 100 µM (inactive) | GI50 (SK-MEL-2): > 100 µM (inactive) | GI50 (HCC 2998): > 100 µM (inactive) | GI50 (M14): > 100 µM (inactive) | GI50 (NCI-H460): > 100 µM (inactive) | GI50 (TK-10): > 100 µM (inactive) | GI50 (RPMI-8226): > 100 µM (inactive) | GI50 (NCI-H23): > 100 µM (inactive) | GI50 (DLD-1): > 100 µM (inactive) | GI50 (CAKI-1): > 100 µM (inactive) | GI50 (DMS-273): > 100 µM (inactive) | GI50 (OVCAR-3): > 100 µM (inactive) | GI50 (SK-OV-3): > 100 µM (inactive) | GI50 (M19-MEL): > 100 µM (inactive) | GI50 (DMS-114): > 100 µM (inactive) | GI50 (RXF 631): > 100 µM (inactive) | GI50 (KM12): > 100 µM (inactive) | GI50 (NCI-H522): > 100 µM (inactive) | GI50 (SF-539): > 100 µM (inactive) | GI50 (NCI-H226): 42.9 µM (inactive) | GI50 (UO-31): > 100 µM (inactive) | GI50 (ACHN): > 100 µM (inactive) | GI50 (SW-620): > 100 µM (inactive) | GI50 (UACC-257): > 100 µM (inactive) | GI50 (U-251): > 100 µM (inactive) | GI50 (HOP-62): > 100 µM (inactive) | GI50 (XF498): > 100 µM (inactive) | GI50 (OVCAR-8): > 100 µM (inactive) | GI50 (LXFL 529): > 100 µM (inactive) | GI50 (RXF 393): > 100 µM (inactive) | GI50 (A549): > 100 µM (inactive) | GI50 (SN12C): > 100 µM (inactive) | GI50 (SNB-75): 65.6 µM (inactive)
